{"source": "patent US20200121801A1", "about": "“DRUG DELIVERY CONJUGATES CONTAINING UNNATURAL AMINO ACIDS AND METHODS FOR USING” (priority 2012, published 2020)", "key": {"IGROV1 (FR+)": {"system": "IGROV1 (FR+)", "experiment": "In vitro activity, 3H-thymidine incorporation, IGROV1", "type": "cell-based, Human", "method": "(§1) METHOD. In vitro activity against various cancer cell lines. IC50 values are generated for various cell lines. Cells are heavily seeded in 24-well Falcon plates and allowed to form nearly confluent monolayers overnight. Thirty minutes prior to the addition of the test compound, spent medium is aspirated from all wells and replaced with fresh folate-deficient RPMI medium (FFRPMI). A subset of wells are designated to receive media containing 100 μM folic acid. The cells in the designated wells are used to determine the targeting specificity. Without being bound by theory it is believed herein that the cytotoxic activity produced by test compounds in the presence of excess folic acid, i.e. where there is competition for FR binding, corresponds to the portion of the total activity that is unrelated to FR-specific delivery. Following one rinse with 1 mL of fresh FFRPMI containing 10% heat-inactivated fetal calf serum, each well receives 1 mL of medium containing increasing concentrations of test compound (4 wells per sample) in the presence or absence of 100 μM free folic acid as indicated. […] A 450 μL aliquot of each solubilized sample is transferred to a scintillation vial containing 3 mL of Ecolume scintillation cocktail and then counted in a liquid scintillation counter. Final results are expressed as the percentage of ^3H-thymidine incorporation relative to untreated controls."}, "NC1/ADR-RES-Cl2 (FR+)": {"system": "NC1/ADR-RES-Cl2 (FR+)", "experiment": "In vitro activity, 3H-thymidine incorporation, NC1/ADR-RES-Cl2", "type": "cell-based, Human", "method": "as §1"}, "[1]": {"experiment": "Maximum tolerated dose (MTD)", "set-up": "species or system Sprague-Dawley rats", "details": "rat, in vivo", "method": "EXAMPLE. Maximum tolerated dose (MTD). […] Test compounds are administered by i.v., BIW, 2 wks in female Sprague-Dawley rats. Comparator compound EC0531 has a MTD of 0.33 μmol/kg, while EC1456 has a MTD of at least 0.51 μmol/kg, a […], as shown in FIG. 20. Histopathologic changes were not observed with doses of EC1456 at or below the MTD."}, "H23 (FR-)": {"system": "H23 (FR-)", "experiment": "In vitro activity, 3H-thymidine incorporation, H23", "type": "cell-based, Human", "details": "evaluated from 0.1-100 nM", "method": "as §1"}, "MDA-MB-231 tumors": {"system": "MDA-MB-231 tumors", "experiment": "TNBC tumor assay, s.c. MDA-MB-231 xenografts", "type": "in vivo, nu/nu mice", "details": "2 μmol/kg i.v. TIW, 2 weeks", "from_the_text": "METHOD. TNBC Tumor Assay. Triple negative breast cancer (TNBC) is a subtype characterized by lack of gene expression for estrogen, progesterone and Her2/neu. TNBC is difficult to treat, and the resulting death rate in patients is reportedly disproportionately higher than for any other subtype of breast cancer. A TNBC xenograft model was generated in an analogous way to the KB and M109 models described herein by implanting MDA-MB-231 breast cancer cells in nu/nu mice. Dosing is initiated when the s.c. tumors have an average volume between 110-150 (generally 130) mm^3 (t0), typically 17 days post tumor inoculation (PTI).\nEXAMPLE. […] Without being bound by theory, it is believed herein that the test animals were cured of the triple negative breast cancer."}, "HepG2 (FR-)": {"system": "HepG2 (FR-)", "experiment": "In vitro activity, 3H-thymidine incorporation, HepG2", "type": "cell-based, Human", "details": "evaluated from 0.1-100 nM", "method": "as §1"}, "KB cells (FR+)": {"system": "KB cells (FR+)", "type": "cell-based, Human", "method": "METHOD. Inhibition of Cellular DNA Synthesis. The compounds described herein are evaluated using an in vitro cytotoxicity assay that predicts the ability of the drug to inhibit the growth of folate receptor-positive cells, such as KB cells, RAW264.7 macrophages, and the like. It is to be understood that the choice of cell type can made on the basis of the susceptibility of those selected cells to the drug that forms the conjugate. The test compounds are comprised of folate linked to a respective chemotherapeutic drug, as prepared according to the processes described herein. The test cells are exposed to varying concentrations of folate-drug conjugate, and also in the absence or presence of at least a 100-fold excess of folic acid to assess activity as being specific to folate receptor mediation.\nEXAMPLE. Conjugates of cytotoxic drugs described herein are active against KB cells. The activity is mediated by the folate receptor as indicated by competition experiments using co-administered folic acid. KB cells are exposed for up to 7 h at 37° C. to the indicated concentrations of folate-drug conjugate in the absence or presence of at least a 100-fold excess of folic acid. The cells are then rinsed once with fresh culture medium and incubated in fresh culture medium for 72 hours at 37° C. Cell viability was assessed using a ^3H-thymidine incorporation assay.\nMETHOD. In vitro activity against various cancer cell lines. IC50 values are generated for various cell lines. Cells are heavily seeded in 24-well Falcon plates and allowed to form nearly confluent monolayers overnight. Thirty minutes prior to the addition of the test compound, spent medium is aspirated from all wells and replaced with fresh folate-deficient RPMI medium (FFRPMI). A subset of wells are designated to receive media containing 100 μM folic acid. The cells in the designated wells are used to determine the targeting specificity. Without being bound by theory it is believed herein that the cytotoxic activity produced by test compounds in the presence of excess folic acid, i.e. where there is competition for FR binding, corresponds to the portion of the total activity that is unrelated to FR-specific delivery. Following one rinse with 1 mL of fresh FFRPMI containing 10% heat-inactivated fetal calf serum, each well receives 1 mL of medium containing increasing concentrations of test compound (4 wells per sample) in the presence or absence of 100 μM free folic acid as indicated. Treated cells are pulsed for 2 h at 37° C., rinsed 4 times with 0.5 mL of media, and then chased in 1 mL of fresh medium up to 70 h. Spent medium is aspirated from all wells and replaced with fresh medium containing 5 μCi/mL ^3H-thymidine. Following a further 2 h 37° C. incubation, cells are washed 3 times with 0.5 mL of PBS and then treated with 0.5 mL of ice-cold 5% trichloroacetic acid per well. After 15 min, the trichloroacetic acid is aspirated and the cell material solubilized by the addition of 0.5 mL of 0.25 N sodium hydroxide for 15 min. A 450 μL aliquot of each solubilized sample is transferred to a scintillation vial containing 3 mL of Ecolume scintillation cocktail and then counted in a liquid scintillation counter. Final results are expressed as the percentage of ^3H-thymidine incorporation relative to untreated controls."}, "AN3CA (FR-)": {"system": "AN3CA (FR-)", "experiment": "In vitro activity, 3H-thymidine incorporation, AN3CA", "type": "cell-based, Human", "details": "evaluated from 0.1-100 nM", "method": "as §1"}, "MDA-MB-231 (FR+)": {"system": "MDA-MB-231 (FR+)", "experiment": "In vitro activity, 3H-thymidine incorporation, MDA-MB-231", "type": "cell-based, Human", "method": "as §1"}, "[2]": {"target": "T1, folate receptors (FRs) on KB cells (Homo sapiens, UniProt P15328)", "T1 construct": "FR-positive KB cells are heavily seeded into 24-well cell culture plates; endogenous in cells; host or cells: KB cells", "T1 sequence (P15328 25-234)": "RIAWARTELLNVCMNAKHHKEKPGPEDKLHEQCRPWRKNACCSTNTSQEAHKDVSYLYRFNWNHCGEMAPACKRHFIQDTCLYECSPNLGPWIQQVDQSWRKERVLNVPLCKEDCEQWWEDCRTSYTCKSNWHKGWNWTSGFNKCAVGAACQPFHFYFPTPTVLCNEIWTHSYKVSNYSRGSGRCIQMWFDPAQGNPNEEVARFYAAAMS", "experiment": "Relative affinity assay (3H-folic acid competition) on KB cells", "type": "binding", "details": "folic acid = 1; in 10% serum/FDRPMI", "method": "METHOD. Relative Affinity Assay. The affinity for folate receptors (FRs) relative to folate is determined according to a previously described method (Westerhof, G. R., J. H. Schornagel, et al. (1995) Mol. Pharm. 48: 459-471) with slight modification. Briefly, FR-positive KB cells are heavily seeded into 24-well cell culture plates and allowed to adhere to the plastic for 18 h. Spent incubation media is replaced in designated wells with folate-free RPMI (FFRPMI) supplemented with 100 nM ^3H-folic acid in the absence and presence of increasing concentrations of test article or folic acid. Cells are incubated for 60 min at 37° C. and then rinsed 3 times with PBS, pH 7.4. Five hundred microliters of 1% SDS in PBS, pH 7.4, is added per well. Cell lysates are then collected and added to individual vials containing 5 mL of scintillation cocktail, and then counted for radioactivity. Negative control tubes contain only the ^3H-folic acid in FFRPMI (no competitor). Positive control tubes contain a final concentration of 1 mM folic acid, and CPMs measured in these samples (representing non-specific binding of label) are subtracted from all samples."}, "[3]": {"system": "KB-CR2000 (cisplatin resistant) tumors", "experiment": "Cisplatin-resistant KB-CR2000 tumor model", "type": "in vivo, mice"}, "A549 (FR-)": {"system": "A549 (FR-)", "experiment": "In vitro activity, 3H-thymidine incorporation, A549", "type": "cell-based, Human", "details": "evaluated from 0.1-100 nM", "method": "as §1"}, "KB tumors": {"system": "KB tumors", "experiment": "Inhibition of tumor growth, s.c. KB tumors in nu/nu mice", "type": "in vivo", "set-up": "key to In vivo activity (e): CR = complete response, where tumor volume, as defined herein, during the observation period was zero for all test animals in the group", "details": "for CR: 2 weeks", "method": "METHOD. Inhibition of Tumor Growth in Mice. […] For tumor cell inoculation, 1×10^6 M109 cells (a syngeneic lung carcinoma) in Balb/c strain, or 1×10^6 KB cells in nu/nu strain, in 100 μL are injected in the subcutis of the dorsal medial area (right axilla).\nMETHOD. Toxicity as Measured by Weight Loss. The percentage weight change of the test animals is determined on selected days post-tumor inoculation (PTI), and during dosing. The results are graphed."}}, "note": "“Also recorded” adds a separate entry of the source. Marks after values point to notes of the source that are not given here.", "data": [{"smiles": "CCCC(=O)OCN(C(=O)[C@@H](NC(=O)[C@H]1CCCCN1C)C(C)CC)C(C[C@@H](OC(C)=O)c1nc(C(=O)N[C@@H](Cc2ccc(O)cc2)C[C@H](C)C(=O)NNC(=O)OCCSSC[C@@H](NC(=O)[C@H](CCC(=O)NC[C@H](O)[C@@H](O)[C@H](O)[C@H](O)CO)NC(=O)[C@@H](CCC(=O)O)NC(=O)[C@H](CCC(=O)NC[C@H](O)[C@@H](O)[C@H](O)[C@H](O)CO)NC(=O)[C@@H](CCC(=O)O)NC(=O)[C@H](CCC(=O)NC[C@H](O)[C@@H](O)[C@H](O)[C@H](O)CO)NC(=O)CC[C@@H](NC(=O)c2ccc(NCc3cnc4nc(N)[nH]c(=O)c4n3)cc2)C(=O)O)C(=O)O)cs1)C(C)C", "note": "(stereo partly drawn) [EC1456]", "values": [{"measurement": "Competable up to 100 nM", "setting": "IGROV1 (FR+)", "result": "Yes"}, {"measurement": "Competable up to 100 nM", "setting": "NC1/ADR-RES-Cl2 (FR+)", "result": "Yes"}, {"measurement": "improvement in MTD over EC0531", "setting": "[1]", "result": 65, "unit": "%"}, {"measurement": "MTD at 2 weeks", "setting": "[1]; iv, BIW, 2 wks, female Sprague-Dawley rats", "result": "≥ 0.51", "unit": "µmol/kg"}, {"measurement": "Activity (IC50)", "setting": "H23 (FR-)", "result": "Inactive"}, {"measurement": "weight loss / gross whole animal toxicity", "setting": "MDA-MB-231 tumors", "result": "did not cause gross whole animal toxicity; also recorded: not accompanied by significant weight loss"}, {"measurement": "complete responses (test animals)", "setting": "MDA-MB-231 tumors; observation nearly 135 days", "result": "4 of 5"}, {"measurement": "Activity (IC50)", "setting": "HepG2 (FR-)", "result": "Inactive"}, {"measurement": "improvement in specificity compared to comparator EC0531", "setting": "KB cells (FR+)", "result": 4, "unit": "fold"}, {"measurement": "In vitro specificity (fold) (d)", "setting": "KB cells (FR+); IC50 competed group vs non-competed group", "result": 944, "unit": "fold"}, {"measurement": "specificity for the folate receptor by folic acid competition", "setting": "KB cells (FR+); IC50 competed vs non-competed group", "result": "ca. 1000 fold"}, {"measurement": "Competable up to 100 nM", "setting": "KB cells (FR+); KB", "result": "Yes"}, {"measurement": "Activity (IC50)", "setting": "AN3CA (FR-)", "result": "Inactive"}, {"measurement": "Competable up to 100 nM", "setting": "MDA-MB-231 (FR+)", "result": "Yes"}, {"measurement": "Relative Affinity (a) compared to folic acid", "setting": "[2]", "result": 0.27}, {"measurement": "CRs (test animals)", "setting": "[3]; 2 μmol/kg i.v. TIW, 2 weeks", "result": "5/5"}, {"measurement": "regrowth of the tumor (test animals)", "setting": "[3]; 2 μmol/kg i.v. TIW, 2 weeks", "result": "1/5"}, {"measurement": "weight loss / host animal toxicity", "setting": "[3]; 2 μmol/kg i.v. TIW, 2 weeks", "result": "did not exhibit significant host animal toxicity; also recorded: did not cause any weight loss"}, {"measurement": "test animals cured (no regrowth)", "setting": "[3]; nearly 70 day observation period", "result": "4/5"}, {"measurement": "Activity (IC50)", "setting": "A549 (FR-)", "result": "Inactive (a)"}, {"measurement": "Toxicity: Avg. Weight Loss", "setting": "KB tumors; 0.5 μmol/kg, TIW, 3 weeks, untreated control 2.4%", "result": "<5", "unit": "%*"}, {"measurement": "whole animal toxicity (body weight)", "setting": "KB tumors; 1 μmol/kg TIW, 2 wk", "result": "did not result in any observable whole animal toxicity; also recorded: does not show any evidence of whole animal toxicity"}, {"measurement": "complete response (test animals)", "setting": "KB tumors; 1 μmol/kg i.v. TIW, 2 wk", "result": "4/4"}, {"measurement": "CR", "setting": "KB tumors; 1.0 μmol/kg, TIW", "result": 60, "unit": "%"}, {"measurement": "CR", "setting": "KB tumors; 2.0 μmol/kg, TIW", "result": 100, "unit": "%"}, {"measurement": "activity competable with excess EC0923", "setting": "KB tumors; EC0923 50 or 100 μmol/kg co-dosed", "result": "competable"}, {"measurement": "In vivo activity (e)", "setting": "KB tumors; subcutaneous KB tumor in nu/nu mice", "result": "CR"}]}]}
